Experimental data: the supplement of paper PMC12463676, “Small-molecule dissolution of stress granules by redox modulation benefits ALS models” (Nature Chemical Biology, 2025)

Experiments:
lipoamide = compound: NC(=O)CCCCC1CCSS1 [lipoamide]; assay: thermal stability z-score vs DMSO; higher = more thermally stabilized by treatment; settings: HeLa, lipoamide concentration 100 µM
Procedure: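 Cellular thermal proteome profiling in HeLa cells. Cells were treated with 100 µM lipoamide for 1 h, with or without 1 mM arsenate for a further 1 h, then heated to ten temperatures (37-66.3 °C), and soluble protein was quantified by TMT mass spectrometry relative to 0.1% DMSO controls. The thermal stability score (sum of log2 fold changes minus the abundance score) was transformed to a z-score; mean of n = 3 experiments.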

potassium arsenate = compound: O=[As]([O-])(O)O.[K+] [potassium arsenate]; assay: as above; settings: HeLa; arsenate concentration 1 mM
Procedure: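 Cellular thermal proteome profiling in HeLa cells treated with 1 mM arsenate for 1 h (DMSO pretreatment), heated to ten temperatures (37-66.3 °C). Soluble protein was quantified by TMT mass spectrometry relative to DMSO controls; the thermal stability score was transformed to a z-score; mean of n = 3 experiments.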

[1] = arsenate co-treatment: 1 mM arsenate 1 h
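Note: each temperature applied for 3 min, abundance score taken as mean log2 fold change at the two lowest temperatures, z-score obtained by mean subtraction and division by SD.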

Chain of UniProt Q9BXF6 (Q9BXF6 whole entry): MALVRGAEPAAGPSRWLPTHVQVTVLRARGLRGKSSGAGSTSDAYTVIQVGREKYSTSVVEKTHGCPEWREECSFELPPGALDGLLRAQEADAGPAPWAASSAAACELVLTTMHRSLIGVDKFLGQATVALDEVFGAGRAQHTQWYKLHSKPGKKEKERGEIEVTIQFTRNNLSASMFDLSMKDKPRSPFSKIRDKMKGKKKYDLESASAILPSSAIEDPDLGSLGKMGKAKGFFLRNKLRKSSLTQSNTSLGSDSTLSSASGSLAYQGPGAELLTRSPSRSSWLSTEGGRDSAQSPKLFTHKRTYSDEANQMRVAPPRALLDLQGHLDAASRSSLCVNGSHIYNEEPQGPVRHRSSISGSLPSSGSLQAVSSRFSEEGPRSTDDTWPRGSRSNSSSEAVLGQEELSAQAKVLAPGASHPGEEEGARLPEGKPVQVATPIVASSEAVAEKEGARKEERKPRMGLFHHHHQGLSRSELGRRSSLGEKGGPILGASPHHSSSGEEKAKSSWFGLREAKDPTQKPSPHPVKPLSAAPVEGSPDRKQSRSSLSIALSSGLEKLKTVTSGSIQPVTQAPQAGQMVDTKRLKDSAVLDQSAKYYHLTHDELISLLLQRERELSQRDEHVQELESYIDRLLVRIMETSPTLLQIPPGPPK
Chain of UniProt P06730 (P06730 whole entry): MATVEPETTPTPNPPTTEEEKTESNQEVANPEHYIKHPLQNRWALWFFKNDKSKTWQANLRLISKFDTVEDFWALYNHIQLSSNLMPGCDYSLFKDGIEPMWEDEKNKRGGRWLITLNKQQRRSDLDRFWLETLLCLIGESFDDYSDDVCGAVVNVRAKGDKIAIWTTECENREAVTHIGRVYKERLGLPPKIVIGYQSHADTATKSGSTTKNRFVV
Chain of UniProt Q9H936 (Q9H936 whole entry): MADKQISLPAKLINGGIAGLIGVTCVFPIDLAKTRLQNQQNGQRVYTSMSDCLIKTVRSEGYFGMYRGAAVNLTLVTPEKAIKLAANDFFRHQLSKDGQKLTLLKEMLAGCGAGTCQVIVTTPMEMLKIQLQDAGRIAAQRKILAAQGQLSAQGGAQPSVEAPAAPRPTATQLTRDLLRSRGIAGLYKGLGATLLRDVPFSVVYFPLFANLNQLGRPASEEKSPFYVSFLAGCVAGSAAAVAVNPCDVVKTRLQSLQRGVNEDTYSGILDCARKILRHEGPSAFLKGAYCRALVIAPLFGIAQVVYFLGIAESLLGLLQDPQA
Chain of UniProt Q8TE02 (Q8TE02 whole entry): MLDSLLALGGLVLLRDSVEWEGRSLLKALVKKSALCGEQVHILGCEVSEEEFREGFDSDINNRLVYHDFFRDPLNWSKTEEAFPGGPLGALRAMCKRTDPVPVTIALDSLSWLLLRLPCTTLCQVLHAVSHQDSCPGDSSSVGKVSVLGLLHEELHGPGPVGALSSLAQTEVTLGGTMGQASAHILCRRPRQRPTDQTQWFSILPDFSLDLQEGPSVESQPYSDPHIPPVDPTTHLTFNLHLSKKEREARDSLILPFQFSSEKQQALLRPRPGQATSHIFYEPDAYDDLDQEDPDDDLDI
Chain of UniProt Q9UK53 (Q9UK53 whole entry): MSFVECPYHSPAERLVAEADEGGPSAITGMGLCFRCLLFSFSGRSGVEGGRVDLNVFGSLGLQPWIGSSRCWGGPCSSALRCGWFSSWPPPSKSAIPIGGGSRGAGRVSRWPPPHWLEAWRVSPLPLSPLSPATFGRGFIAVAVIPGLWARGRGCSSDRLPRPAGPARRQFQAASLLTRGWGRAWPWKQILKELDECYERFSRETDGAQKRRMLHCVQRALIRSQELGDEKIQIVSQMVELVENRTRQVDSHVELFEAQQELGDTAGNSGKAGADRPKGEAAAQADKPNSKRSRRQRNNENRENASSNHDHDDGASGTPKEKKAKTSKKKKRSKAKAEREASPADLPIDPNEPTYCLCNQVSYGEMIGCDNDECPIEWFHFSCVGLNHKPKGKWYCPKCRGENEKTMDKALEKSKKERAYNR
Chain of UniProt Q53SF7 (Q53SF7 whole entry): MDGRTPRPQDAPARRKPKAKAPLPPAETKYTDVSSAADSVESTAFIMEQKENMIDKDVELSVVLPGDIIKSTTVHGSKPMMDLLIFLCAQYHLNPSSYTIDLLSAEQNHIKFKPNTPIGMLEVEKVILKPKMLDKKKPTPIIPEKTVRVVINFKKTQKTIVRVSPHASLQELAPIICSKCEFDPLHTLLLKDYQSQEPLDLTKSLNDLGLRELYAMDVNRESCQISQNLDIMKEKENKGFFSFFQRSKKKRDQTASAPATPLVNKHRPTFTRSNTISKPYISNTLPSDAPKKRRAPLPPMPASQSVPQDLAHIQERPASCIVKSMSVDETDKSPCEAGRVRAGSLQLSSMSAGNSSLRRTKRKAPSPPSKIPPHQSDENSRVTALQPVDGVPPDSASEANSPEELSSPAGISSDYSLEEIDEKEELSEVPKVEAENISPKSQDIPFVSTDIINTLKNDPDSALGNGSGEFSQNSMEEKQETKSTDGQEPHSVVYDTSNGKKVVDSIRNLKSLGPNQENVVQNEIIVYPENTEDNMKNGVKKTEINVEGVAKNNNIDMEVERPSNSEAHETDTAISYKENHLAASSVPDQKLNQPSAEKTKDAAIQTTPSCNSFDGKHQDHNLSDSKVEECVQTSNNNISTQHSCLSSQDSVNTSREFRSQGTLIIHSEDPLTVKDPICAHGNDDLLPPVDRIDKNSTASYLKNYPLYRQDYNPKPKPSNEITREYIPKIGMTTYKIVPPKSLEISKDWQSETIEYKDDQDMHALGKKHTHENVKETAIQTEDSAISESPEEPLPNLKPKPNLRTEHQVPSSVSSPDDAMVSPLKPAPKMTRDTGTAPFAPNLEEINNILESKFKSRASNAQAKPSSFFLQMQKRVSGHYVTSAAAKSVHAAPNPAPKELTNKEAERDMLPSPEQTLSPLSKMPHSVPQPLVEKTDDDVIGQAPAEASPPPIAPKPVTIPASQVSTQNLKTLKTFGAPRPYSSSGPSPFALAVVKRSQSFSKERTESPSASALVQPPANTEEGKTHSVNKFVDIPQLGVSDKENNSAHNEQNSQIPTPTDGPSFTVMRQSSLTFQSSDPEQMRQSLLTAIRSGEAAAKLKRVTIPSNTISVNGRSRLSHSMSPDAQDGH
Chain of UniProt Q9BTZ2 (Q9BTZ2 whole entry): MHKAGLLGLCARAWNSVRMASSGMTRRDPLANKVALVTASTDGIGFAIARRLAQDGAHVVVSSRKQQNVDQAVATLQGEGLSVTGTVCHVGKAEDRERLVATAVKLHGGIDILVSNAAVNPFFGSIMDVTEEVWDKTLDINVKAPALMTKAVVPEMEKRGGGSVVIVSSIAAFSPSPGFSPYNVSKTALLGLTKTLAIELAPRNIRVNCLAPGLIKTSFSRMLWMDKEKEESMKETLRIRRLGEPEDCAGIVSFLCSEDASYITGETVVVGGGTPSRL
Chain of UniProt P52655 (P52655 whole entry): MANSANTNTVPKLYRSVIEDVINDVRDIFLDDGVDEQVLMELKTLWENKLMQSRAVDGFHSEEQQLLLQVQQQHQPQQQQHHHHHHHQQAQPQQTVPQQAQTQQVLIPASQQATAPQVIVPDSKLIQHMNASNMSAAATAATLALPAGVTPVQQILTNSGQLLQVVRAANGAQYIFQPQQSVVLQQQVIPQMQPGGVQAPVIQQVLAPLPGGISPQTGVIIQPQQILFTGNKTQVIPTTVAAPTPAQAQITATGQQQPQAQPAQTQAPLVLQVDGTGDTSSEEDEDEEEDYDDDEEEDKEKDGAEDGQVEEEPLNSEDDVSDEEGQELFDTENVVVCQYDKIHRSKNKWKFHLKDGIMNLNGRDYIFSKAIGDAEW
Chain of UniProt P52272 (P52272 whole entry): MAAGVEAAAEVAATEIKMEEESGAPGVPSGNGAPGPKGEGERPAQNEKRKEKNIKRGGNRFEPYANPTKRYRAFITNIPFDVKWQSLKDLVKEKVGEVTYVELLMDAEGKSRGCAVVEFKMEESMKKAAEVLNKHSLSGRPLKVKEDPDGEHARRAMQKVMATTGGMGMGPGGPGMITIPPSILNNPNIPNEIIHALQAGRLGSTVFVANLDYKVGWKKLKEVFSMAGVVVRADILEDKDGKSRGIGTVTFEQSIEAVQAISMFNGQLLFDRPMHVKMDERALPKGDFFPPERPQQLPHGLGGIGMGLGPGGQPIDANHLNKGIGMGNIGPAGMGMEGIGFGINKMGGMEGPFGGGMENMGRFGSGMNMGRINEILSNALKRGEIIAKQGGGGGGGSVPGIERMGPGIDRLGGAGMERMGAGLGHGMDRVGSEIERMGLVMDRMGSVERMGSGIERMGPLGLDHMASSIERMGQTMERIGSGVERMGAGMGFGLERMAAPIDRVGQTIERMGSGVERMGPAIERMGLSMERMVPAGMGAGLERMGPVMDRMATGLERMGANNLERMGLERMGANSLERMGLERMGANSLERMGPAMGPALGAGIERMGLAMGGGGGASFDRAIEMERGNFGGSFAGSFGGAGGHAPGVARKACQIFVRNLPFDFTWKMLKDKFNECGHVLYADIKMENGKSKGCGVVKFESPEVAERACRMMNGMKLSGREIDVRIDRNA
Chain of UniProt O15126 (O15126 whole entry): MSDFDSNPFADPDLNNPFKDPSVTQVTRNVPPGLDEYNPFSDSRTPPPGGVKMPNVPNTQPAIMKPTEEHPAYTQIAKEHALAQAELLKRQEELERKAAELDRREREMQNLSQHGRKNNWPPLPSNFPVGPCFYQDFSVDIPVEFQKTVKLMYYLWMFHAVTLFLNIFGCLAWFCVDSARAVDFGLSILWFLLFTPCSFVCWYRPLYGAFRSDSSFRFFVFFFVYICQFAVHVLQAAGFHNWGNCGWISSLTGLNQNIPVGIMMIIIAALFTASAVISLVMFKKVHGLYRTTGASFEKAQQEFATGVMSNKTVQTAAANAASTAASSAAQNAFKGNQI
Chain of UniProt P30043 (P30043 whole entry): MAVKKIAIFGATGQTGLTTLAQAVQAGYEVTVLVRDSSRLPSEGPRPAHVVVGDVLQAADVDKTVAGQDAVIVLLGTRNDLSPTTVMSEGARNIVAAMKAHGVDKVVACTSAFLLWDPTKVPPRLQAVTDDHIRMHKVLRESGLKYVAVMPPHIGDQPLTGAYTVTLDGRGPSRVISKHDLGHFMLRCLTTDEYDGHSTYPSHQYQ

Row | Target | thermal stability z-score (lipoamide; [1]) | thermal stability z-score (lipoamide; arsenate co-treatment: none) | thermal stability z-score (potassium arsenate)
1 | TOMM20 (UniProt Q15388) | 0.133 | 1.67 | 1.73
2 | ELP5 (UniProt Q8TE02) | -0.313 | -0.364 | 0.489
3 | BLVRB (UniProt P30043) | 0.863 | -0.0398 | 1.14
4 | EIF4E (UniProt P06730) | 0.236 | -0.135 | 0.461
5 | TRIO (UniProt O75962) | -0.939 | -0.335 | 0.0185
6 | NBN (UniProt O60934) | 0.219 | 0.275 | -0.469
7 | EXOSC1 (UniProt Q9Y3B2) | 0.0998 | -1.26 | -0.615
8 | CD55 (UniProt P08174) | 0.266 | 0.169 | 0.446
9 | TXN2 (UniProt Q99757) | -0.504 | 0.00983 | 2.39
10 | WIPI1 (UniProt Q5MNZ9) | -0.175 | -0.814 | 0.18
11 | THOP1 (UniProt P52888) | -0.0659 | -0.212 | -0.915
12 | ACTN4 (UniProt O43707) | 0.262 | 0.364 | 0.498
13 | SPATA5L1 (UniProt Q9BVQ7) | 0.441 | 0.172 | 0.487
14 | INPP5B (UniProt P32019) | -0.146 | -0.514 | -0.211
15 | SRPRA (UniProt P08240) | -0.176 | -0.208 | 0.545
16 | SCAMP1 (UniProt O15126) | 0.621 | 0.765 | 0.0619
17 | SLC25A22 (UniProt Q9H936) | -0.147 | 0.0868 | -0.472
18 | ENO1 (UniProt P06733) | 0.588 | 0.278 | -0.0281

Row | Target | thermal stability z-score (lipoamide; [1]) | thermal stability z-score (lipoamide; arsenate co-treatment: none) | thermal stability z-score (potassium arsenate)
19 | COBLL1 (UniProt Q53SF7) | 0.248 | 0.43 | -0.608
20 | ANP32E (UniProt Q9BTT0) | -1.1 | 0.32 | -4
21 | RCL1 (UniProt Q9Y2P8) | 1.4 | 0.192 | 2.29
22 | CBL (UniProt P22681) | 0.255 | 0.154 | -0.368
23 | RAB11FIP5 (UniProt Q9BXF6) | 0.135 | -1.43 | 0.895
24 | NDUFV2 (UniProt P19404) | 0.418 | -0.0827 | 0.966
25 | HNRNPM (UniProt P52272) | -0.523 | -0.135 | -1.87
26 | ATP2C1 (UniProt P98194) | -1.04 | -0.728 | -1.37
27 | DUS2 (UniProt Q9NX74) | -0.517 | 0.0964 | -0.452
28 | EIF5B (UniProt O60841) | -0.519 | -0.31 | 1.42
29 | DUS3L (UniProt Q96G46) | -0.321 | -0.548 | -0.458
30 | ING1 (UniProt Q9UK53) | 1.11 | 0.466 | -1.34
31 | GTF2A1 (UniProt P52655) | 1.26 | 1.56 | 1.02
32 | DNM1L (UniProt O00429) | -0.508 | 0.234 | 0.237
33 | MRPS7 (UniProt Q9Y2R9) | -1.12 | -0.496 | 0.102
34 | NCKIPSD (UniProt Q9NZQ3) | 0.127 | 0.0916 | 0.255
35 | DHRS4 (UniProt Q9BTZ2) | -0.194 | -0.173 | 0.0753
